In patent US4276375A, “Determination of serine proteases” (AB Kabi, priority 1976, dated 1981):
Structures can show the parent of a compound that is named as a salt. Residues, ends and D or L forms follow the SMILES beside them. *: point of attachment. pNA = O=[N+]([O-])c1ccc(N*)cc1; Piperidide = C1CCN(*)CC1; Bz = O=C(c1ccccc1)*; NHiPr = CC(C)N*; OiPr = CC(C)O*

B1: factor Xa (Bos taurus) (protein)
chain 1: IVGGRDCAEGECPWQALLVNEENEGFCGGTILNEFYVLTAAHCLHQAKRFTVRVGDRNTEQEEGNEMAHEVEMTVKHSRFVKETYDFDIAVLRLKTPIRFRRNVAPACLPEKDWAEATLMTQKTGIVSGFGRTHEKGRLSSTLKMLEVPYVDRSTCKLSSSFTITPNMFCAGYDTQPEDACQGDSGGPHVTRFKDTYFVTGIVSWGEGCARKGKFGVYTKVSNFLKWIDKIMKARAGAAGSRGHSEAPATWTVPPPLPL
chain 2: ANSFLEEVKQGNLERECLEEACSLEEAREVFEDAEQTDEFWSKYKDGDQCEGHPCLNQGHCKDGIGDYTCTCAEGFEGKNCEFSTREICSLDNGGCDQFCREERSEVRCSCAHGYVLGDDSKSCVSTERFPCGKFTQGRS
notes: purchased Diagnostic Reagents (product 'Diagen', 6.4 Denson U)

Experiments:
Type in all cases: biochemical
factor Xa [1] = target: T1, factor Xa (Bos taurus, UniProt P00743); assay: Relative activity (rate of substrate hydrolysis, Δ OD/min at 405 nm); conditions: S-2222 = 100, 250 μl of 2 mmole/l substrate in 2500 μl, Tris buffer pH 8.3, 37° C.
T1 construct: purchased Diagnostic Reagents (product 'Diagen', 6.4 Denson U)
Protocol: (§1) Buffer Tris (tris(hydroxymethyl)aminomethane)
(§2) 0.05 mole/l, pH = 8.3, I = 0.25 (NaCl)
(§3) Enzyme Diagen (6.4 Denson U) (Diagnostic Reagents)
(§4) . 1 ampule is dissolved in 2 ml of water.
(§5) The substrate is dissolved in water to 2 mmole/l.
Substrate, +37° C.250 μl
(§6) Mix and read change of absorbance (Δ OD/min) at […]

factor Xa [2] = target: T1, factor Xa; assay: Determination of Km and Vmax (Lineweaver-Burk, hydrolysis of chromogenic substrate read at 405 nm); conditions: value is Vmax multiplied by 10^8; Tris buffer pH 8.3, I 0.25, 37° C., enzyme Diagen
Protocol: (§7) Km and Vmax are obtained by means of the Lineweaver-Burk equation: [formula] Enzyme and substrate are mixed in a buffer solution and the rate of hydrolysis is measured spectrophotometrically. The substrate concentration (So) is varied while the enyzme concentration is kept constant. The reciprocal velocity l/vo is then plotted against the reciprocal substrate concentration l/So, and Km and Vmax are estimated (Table 1) from the obtained Lineweaver-Burk diagram.
as §1, §2, §3, §4, §5, §6

[3] = substrate: CC[C@H](C)[C@H](NC(=O)c1ccccc1)C(=O)N[C@@H](CCC(=O)O)C(=O)NCC(=O)N[C@@H](CCCN=C(N)N)C(=O)Nc1ccc([N+](=O)[O-])cc1; assay: as above; conditions: other: stated in the text; pH 8.3
Protocol: as §7, §1, §2, §3, §4, §5, §6

[4] = substrate: CC[C@H](C)[C@H](NC(=O)c1ccccc1)C(=O)N[C@@H](CCC(=O)NC(C)C)C(=O)NCC(=O)N[C@@H](CCCNC(=N)N)C(=O)Nc1ccc([N+](=O)[O-])cc1; assay: as above; conditions: other: value is Km multiplied by 10^4, Tris buffer 0.05 mole/l, pH 8.3, I 0.25 (NaCl), 37° C., enzyme Diagen, 37.0 °C
Protocol: as §7, §1, §2, §3, §4, §5, §6

[5] = substrate: CC[C@H](C)[C@H](NC(=O)c1ccccc1)C(=O)N[C@@H](CCC(=O)N1CCCCC1)C(=O)NCC(=O)N[C@@H](CCCNC(=N)N)C(=O)Nc1ccc([N+](=O)[O-])cc1; assay: as above; conditions: other: value is Km multiplied by 10^4, Tris buffer 0.05 mole/l, pH 8.3, I 0.25 (NaCl), 37° C., enzyme Diagen, 37.0 °C
Protocol: as §7, §1, §2, §3, §4, §5, §6

[6] = substrate: CC[C@H](C)[C@H](NC(=O)c1ccccc1)C(=O)N[C@@H](CCC(=O)OC(C)C)C(=O)NCC(=O)N[C@@H](CCCNC(=N)N)C(=O)Nc1ccc([N+](=O)[O-])cc1; assay: as above; conditions: other: value is Km multiplied by 10^4, Tris buffer 0.05 mole/l, pH 8.3, I 0.25 (NaCl), 37° C., enzyme Diagen, 37.0 °C
Protocol: as §7, §1, §2, §3, §4, §5, §6

[7] = substrate: CCOC(=O)CC[C@H](NC(=O)[C@@H](NC(=O)c1ccccc1)[C@@H](C)CC)C(=O)NCC(=O)N[C@@H](CCCNC(=N)N)C(=O)Nc1ccc([N+](=O)[O-])cc1; assay: as above; conditions: other: value is Km multiplied by 10^4, Tris buffer 0.05 mole/l, pH 8.3, I 0.25 (NaCl), 37° C., enzyme Diagen, 37.0 °C
Protocol: as §7, §1, §2, §3, §4, §5, §6

[8] = substrate: CC[C@H](C)[C@H](NC(=O)c1ccccc1)C(=O)N[C@@H](CCC(=O)OC)C(=O)NCC(=O)N[C@@H](CCCNC(=N)N)C(=O)Nc1ccc([N+](=O)[O-])cc1; assay: as above; conditions: other: value is Km multiplied by 10^4, Tris buffer 0.05 mole/l, pH 8.3, I 0.25 (NaCl), 37° C., enzyme Diagen, 37.0 °C
Protocol: as §7, §1, §2, §3, §4, §5, §6

Molecule	Relative activity (factor Xa [1])	Vmax · 10^8 (factor Xa [2])	also measured
CC[C@H](C)[C@H](NC(=O)c1ccccc1)C(=O)N[C@@H](CCC(=O)OC)C(=O)NCC(=O)N[C@@H](CCCNC(=N)N)C(=O)Nc1ccc([N+](=O)[O-])cc1 [Ex. 1, Bz-Ile-Glu(OMe)-Gly-Arg-pNA.HCl] (Bz-IE(OMe)GR-pNA)	230	8.1 mol/min · U	–
CCOC(=O)CC[C@H](NC(=O)[C@@H](NC(=O)c1ccccc1)[C@@H](C)CC)C(=O)NCC(=O)N[C@@H](CCCNC(=N)N)C(=O)Nc1ccc([N+](=O)[O-])cc1 [Ex. 2, Bz-Ile-Glu(OEt)-Gly-Arg-pNA.HCl] (Bz-IE(OEt)GR-pNA)	200	7.5 mol/min · U	–
CC[C@H](C)[C@H](NC(=O)c1ccccc1)C(=O)N[C@@H](CCC(=O)OC(C)C)C(=O)NCC(=O)N[C@@H](CCCNC(=N)N)C(=O)Nc1ccc([N+](=O)[O-])cc1 [Ex. 3, Bz-Ile-Glu(OisoPr)-Gly-Arg-pNA.HCl] (Bz-IE(OiPr)GR-pNA)	220	7.1 mol/min · U	–
CC[C@H](C)[C@H](NC(=O)c1ccccc1)C(=O)N[C@@H](CCC(=O)NC(C)C)C(=O)NCC(=O)N[C@@H](CCCNC(=N)N)C(=O)Nc1ccc([N+](=O)[O-])cc1 [Ex. 6] (Bz-IE(NHiPr)GR-pNA)	340	20.0 mol/min · U	–
CC[C@H](C)[C@H](NC(=O)c1ccccc1)C(=O)N[C@@H](CCC(=O)N1CCCCC1)C(=O)NCC(=O)N[C@@H](CCCNC(=N)N)C(=O)Nc1ccc([N+](=O)[O-])cc1 [Ex. 7] (Bz-IE(Piperidide)GR-pNA)	300	8.6 mol/min · U	–
CC[C@H](C)[C@H](NC(=O)c1ccccc1)C(=O)N[C@@H](CCC(=O)O)C(=O)NCC(=O)N[C@@H](CCCNC(=N)N)C(=O)Nc1ccc([N+](=O)[O-])cc1 [Example S-2222, Benzoyl-Ile-Glu-Gly-Arg-p-nitroanilide, reference compound] (Bz-IEGR-pNA)	100	8.6 mol/min · U	–
B1	–	–	Km [3]: 830 µM; Km [4]: 560 µM; Km [5]: 170 µM; Km [6]: 210 µM; Km [7]: 290 µM; Km [8]: 260 µM
